Where two headings read alike, the source gives them in different places.
What was measured:
[1] = test system: HCT 116 colon cancer and MDA-MB231 breast cancer cell lines; test: MTT cell proliferation assay; assay type: cell-based; conditions: for cytotoxicity at 100 µM: read-out: cell viability decreased
Method: (§1) HCT 116 colon cancer and MDA-MB231 breast cancer cell lines are used in cell culture experiments.
(§2) Cells were treated with high-glucose DMEM medium (Biosera) supplemented with 10% FBS (Gibco) and 1× penicillin/streptomycin (Multicell). The assay was designed to contain 10,000 cells for each well of 24-well cell culture plates before being treated with inhibitors.
(§3) Compound of formula I was dissolved with DMSO as 20 mM stock. 24 hours later, the solution was diluted in DMEM with 10% FBS and final concentration of vehicle DMSO was 0.5% at maximum. Therefore, the vehicle group included 0.5% DMSO concentration in experiments. Intensive cultivation of cells causes a decrease in proliferation capacity.
For proliferation inhibition analysis, cells were seeded in 24 well plates at 1×10^4 cells/well cells overnight without drug treatment. During the cell proliferation experiments, we performed five days of treatment in each cell line and repeated the experiments three times to check each experiment. No significant difference in cell viability was observed after the third day. Therefore, cells with different drug concentrations were treated for two days. After 48 hours, MTT was applied to the cells and incubated at 37° C. for 4 hours, formazan was solubilized with DMSO (Sigma-Aldrich, St. Louis, USA) and absorbance was measured at 570 nm.
Molecule concentration was 100 μM, the lower concentrations were not shown. Vehicle represents the groups treated with only %0,5 DMSO and Untreated represents no molecule treated group. Molecule responses were evaluated by cell viability which is obtained by spectrophotometric analysis of cells upon MTT treatment at 12 h, 24 h, 48 h and 72 h. […] Statistical significance in graphs was determined by comparing each treatment group with DMSO control using ANOVA testing and significance is considered as p<0.001 (FIG. 2).

[2] = test system: MDA-MB231 cell lines; test: MTT cell viability assay (IC50); assay type: cell-based; conditions: Homo sapiens, MDA-MB-231; MDA-MB231, single dose of treatment, 10^−9 to 10^−4 M, 570 nm absorbance
Method: as §1, §2, §3
The MTT cell viability assay was used to detect values of half-maximal inhibitory concentration (IC50). Different concentrations of compound of formula I ranging between 10^−9 to 10^−4 M were tested on MDA-MB231 cell lines with single dose of treatment. 570 nm absorbance values were recorded and IC50 values were calculated by dose response-inhibition curves and nonlinear regression analysis on Graphpad Prism 8 software. IC50 value of compound of formula I was determined to be 24 μm (FIG. 1).

[3] = test system: HCT-116 cells; test: Microscopic evaluation of HCT-116 cells; assay type: cell-based
From the text: Cells were photographed and observed under microscope for three days.
As a result, cell viability decreased by 40% at the end of the first day and reached 60% at the end of the third day. Any cell proliferation change and apoptotic cell morphology were not observed in the untreated and vehicle groups. Moreover, differences in cell morphology were also observed.

[4] = molecular target: MDM2 protein (Homo sapiens, UniProt Q00987); conditions: MDM2 protein versus natural p53 peptide; cited from earlier work
Sequence of MDM2 protein (Q00987 whole entry, species assumed): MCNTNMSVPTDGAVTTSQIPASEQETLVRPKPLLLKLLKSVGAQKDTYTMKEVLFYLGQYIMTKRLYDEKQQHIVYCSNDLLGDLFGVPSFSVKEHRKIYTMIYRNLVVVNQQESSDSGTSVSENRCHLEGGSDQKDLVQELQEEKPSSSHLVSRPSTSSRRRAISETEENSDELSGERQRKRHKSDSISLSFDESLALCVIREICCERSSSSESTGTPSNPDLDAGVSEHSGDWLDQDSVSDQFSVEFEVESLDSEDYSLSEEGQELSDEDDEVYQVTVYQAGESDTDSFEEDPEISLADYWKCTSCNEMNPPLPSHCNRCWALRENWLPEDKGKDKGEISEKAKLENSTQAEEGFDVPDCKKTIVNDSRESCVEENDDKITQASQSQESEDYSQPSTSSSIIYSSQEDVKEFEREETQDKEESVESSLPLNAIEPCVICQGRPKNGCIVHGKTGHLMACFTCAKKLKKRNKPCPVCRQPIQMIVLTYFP

| IC50 [2] [µM] | Compound | cell viability compared to vehicle and untreated groups ([1]; 100 μM, 12 h, 24 h, 48 h and 72 h, ANOVA, p<0.001) | cytotoxicity at 100 µM ([1]; end of the first day) [%] | cytotoxicity at 100 µM ([1]; end of the third day) [%] | morphology of apoptotic cells, onset ([3]; 100 μM concentration) | apoptotic activity, onset ([3]; HCT-116, microscopy) | proliferation and cell structures under microscope ([3]; HCT-116, observed for three days, versus vehicle and untreated) | binding affinity relative to natural p53 peptide [4] [fold] |
| --- | --- | --- | --- | --- | --- | --- | --- | --- |
| 24 | Cc1cc(=O)c(C(=O)NCCc2c[nH]c3ccccc23)nn1-c1cccc(C(F)(F)F)c1 [compound of formula I] | statistically significant difference | 40 | 60 | cells having the morphology of apoptotic cells were observed starting from the 3rd hour | clear apoptotic activity from the twelfth hour | reduced proliferation and showed apoptotic cell structures | – |
| – | MI-319 | – | – | – | – | – | – | 500 |
